# Measurements taken from publication PMC11956013, “Structure–Activity Relationships and Evaluation of 2-(Heteroaryl-cycloalkyl)-1H-indoles as Tauopathy Positron Emission Tomography Radiotracers” (Journal of Medicinal Chemistry, 2025).
# Key:
# Y2 (h) = Y2 (h) (Homo sapiens, UniProt P49146); conditions: compound concentration 1.0E-05 M
# OX2 (h) = molecular target: T1, OX2 (h) (Homo sapiens, UniProt O43614); assay: Eurofins panel: OX2 (h) (agonist radioligand); conditions: compound concentration 1.0E-05 M
# T1 sequence (O43614 1-444): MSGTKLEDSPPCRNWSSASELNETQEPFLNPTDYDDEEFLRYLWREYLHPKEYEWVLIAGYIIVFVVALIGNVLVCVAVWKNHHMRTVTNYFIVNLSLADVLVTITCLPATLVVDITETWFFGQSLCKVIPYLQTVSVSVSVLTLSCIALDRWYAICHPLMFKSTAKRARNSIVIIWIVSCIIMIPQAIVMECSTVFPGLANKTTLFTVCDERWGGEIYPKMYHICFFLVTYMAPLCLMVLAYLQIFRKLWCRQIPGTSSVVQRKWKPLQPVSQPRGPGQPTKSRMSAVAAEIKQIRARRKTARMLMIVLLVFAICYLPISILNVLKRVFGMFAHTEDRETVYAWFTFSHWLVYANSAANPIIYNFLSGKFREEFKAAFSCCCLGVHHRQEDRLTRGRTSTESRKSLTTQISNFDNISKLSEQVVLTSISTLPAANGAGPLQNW
# Sequence of Y2 (h) (P49146 whole entry): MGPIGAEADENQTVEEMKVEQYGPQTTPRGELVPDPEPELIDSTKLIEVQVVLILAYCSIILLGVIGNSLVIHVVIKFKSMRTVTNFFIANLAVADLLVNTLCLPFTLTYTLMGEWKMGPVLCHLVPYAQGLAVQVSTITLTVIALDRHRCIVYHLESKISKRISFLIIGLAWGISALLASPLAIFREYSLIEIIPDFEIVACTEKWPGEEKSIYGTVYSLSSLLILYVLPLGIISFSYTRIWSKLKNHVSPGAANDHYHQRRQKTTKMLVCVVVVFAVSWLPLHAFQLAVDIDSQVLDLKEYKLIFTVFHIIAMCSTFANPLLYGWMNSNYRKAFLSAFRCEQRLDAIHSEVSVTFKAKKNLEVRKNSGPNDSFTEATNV
smiles,measurement,setting,value
"Fc1nc(N2CCOCC2)ccc1-c1cc2ccccc2[nH]1 [Compound 75, 4-(6-Fluoro-5-(1H-indol-2-yl)pyridin-2-yl)morpholine]","% Inhibition, Specific binding",Y2 (h),3.943%
same,"% Inhibition, Specific binding",OX2 (h),0.786%
